Consider 9 compounds from patent US10793557B2, “Sting agonist compounds” (Merck Sharp & Dohme Corp., priority 2018, dated 2020).

In assay [1] the target is T1, full-length WT STING (Homo sapiens, UniProt Q86WV6, H232R).
T1 construct: AviTag (after gg linker) (C); HRV3C cleavage site (after gs linker) (C); HIS8 (C); made in house; host or cells: Trichoplusia ni (Hi-Five) insect cells infected with baculovirus (virus generated and amplified in Sf21 cells); used as a washed membrane preparation
In words: 3H-cGAMP filtration binding assay (WT STING). The settings on record: competition with tritiated cGAMP, WT STING membrane. As for the experimental part: The ability of compounds to bind STING is quantified by their ability to compete with tritiated cGAMP ligand for human STING receptor membrane using a radioactive filter-binding assay. The binding assay employs STING receptor obtained from Trichoplusia ni cell membranes (T. ni; Expression Systems, cat #94-002F, www.expressionsystems.com) overexpressing full-length WT STING and tritiated cGAMP ligand.
The basic WT STING filtration assay protocol is as follows:
16 nM of [^3H] c-GAMP ligand was prepared by diluting into assay buffer, and 50 uL of this working stock was manually added to each well of the assay plate. After ligand addition, 2 uL of either titrated test compound, DMSO control (Sigma #276855), or cold cGAMP control was added to the appropriate wells using a BIOMEK FX. The serially titrated compound was prepared on a Hamilton STARPlus CORE in a 96-well plate (Greiner, #651201) using a 1:3 ten-point dose response format. Following compound addition, a 2.2 ug/ml working concentration of STING membrane (SEQ. ID. No. 3) was prepared by diluting concentrated membrane into assay buffer (1×PBS; Invitrogen # SH30028.02) and douncing 7× using a manual tissue homogenizer (Wheaton, #357546). 148 uL of this prepared membrane was then manually added to each well of a 96-well deep-well polypropylene plate (Fisher Scientific, #12-566-121). Compound, ligand, and membrane then incubated for 60 min at RT before the contents of each assay plate were filtered through a 96-well GF/B filter plate (PerkinElmer, #6005250) using a TOMTEC MACH III Cell Harvester equipped with 20 mM HEPES buffer (Fisher Scientific, # BP299500). The filter plates were then dried at 55° C. for 30 min using a pressurized VWR oven before 30 uL of ULTIMA GOLD F scintillate was added to each well. Tritium levels for each reaction well were then measured using a PerkinElmer TopCount plate reader.
(§1) After normalization to controls, the percent activity for each compound concentration was calculated by measuring the amount of remaining radioactivity. The plot of percent activity versus the log of compound concentration was fit with a 4-parameter dose response equation to calculate EC50 values.

In assay [2] the test system is secretion of interferon-beta from THP1 cells. Briefly: IFN-β secretion in THP1 cell culture (5 h). Format: cell-based. The settings on record: Homo sapiens, THP-1, 5 h, compound at 30 μM, 30 uM cGAMP = 100%, read-out: % Effect at 30 μM relative to 2′3′-cGAMP. As for the experimental part:
The ability of compounds to stimulate the secretion of interferon-beta from THP1 cells was measured using a human IFN-β AlphaLISA kit (Perkin Elmer, Cat. No. AL265F). The basic protocol is as follows:
A Labcyte Echo 550 acoustic dispenser was used to transfer 120 nL of compound dissolved in DMSO into the wells of an empty, sterile 384-well microplate, (Corning, Cat. No. 3712). THP1 cells (American Type Culture Collection, Cat. No. TIB202) previously frozen in Recovery Medium (Life Technologies, Cat. No. 12648-010) were thawed and immediately diluted 10-fold into 37° C. assay medium (RPMI 1640+L-Glutamine & phenol red, Life Technologies, Cat. No. 11875-085; 0.5% heat inactivated fetal bovine serum, Sigma Aldrich, Cat. No. F4135; 1 mM Sodium Pyruvate, Life Technologies, Cat. No. 11360-070; 1× non-essential amino acids; Life Technologies, Cat. No. 11140-050). The cell viability and count was ascertained using a Beckman Coulter V-Cell XR cell counter. The cells suspension was centrifuged at 200×g for 5 min at RT. Cells were resuspended to a density of 0.8×10^6/mL in 37° C. assay medium. Subsequent liquid transfers were performed using either a Matrix electronic multichannel pipette or an Agilent Bravo Automated Liquid Handling Platform.
The assay was started by dispensing 40 μL of the previously prepared cell suspension into the wells of the plate containing compounds. After 5 h incubation at 37° C., 5% CO2 in a humidified atmosphere, the plate of cells and compounds was centrifuged at 200×g for 5 min at RT. From each well, 5 μL of supernatant was transferred into corresponding wells of a white 384-well plate (Perkin Elmer, Cat. No. 6005620). To these supernatant-containing wells was added 10 μL of 5× Anti-Analyte Acceptor beads (50 μg/mL of AlphaLISA HiBlock Buffer) and incubated for 30 min at RT while shaking on an orbital plate shaker. To each well was added 10 μL of 5× Biotinylated Antibody Anti-analyte (5 nM in AlphaLISA HiBlock Buffer) and incubated on an orbital plate shaker for 60 min at RT or overnight at 4° C. To each well was added 25 μL of 2× SA-Donor beads (80 μg/mL in AlphaLISA HiBlock Buffer) and incubated for 30-45 min at RT in the dark while shaking on an orbital plate shaker. The plate was then read on a Perkin Elmer Envision (λex=680 nm, […]). The percent effect of the AlphaLISA signal at each compound concentration was calculated based on 30 uM cGAMP positive controls and 0.3% DMSO negative controls. The plot of percent effect versus the log of compound concentration was fit with a 4-parameter concentration response equation to calculate EC50 values. The test compounds were tested at concentrations 30000, 10000, 3333, 1111, 370.4, 123.4, 41.2, 13.7, 4.6, and 1.5 nM with 0.3% residual DMSO. The control compound, cGAMP was tested at concentrations 100000, 33333, 11111, 3704, 1235, 412, 137, 46, and 15 nM with 0.3% residual DMSO.
Compounds of the disclosure were evaluated for IFN-β secretion in THP1 cell culture as described above. The following table tabulates the biological data for these compounds as percent activation relative to 2′3′-cGAMP at the 30 µM concentration.

Assay [3] deals with T2, full-length HAQ STING (Homo sapiens, UniProt Q86WV6, G230A/H232R/R293Q/R71H).
T2 construct: AviTag (after GG linker) (C); HRV3C cleavage site (after GS linker) (C); HIS8 (C); made in house; host or cells: Trichoplusia ni (Hi-Five) insect cells infected with baculovirus (virus generated and amplified in Sf21 cells); used as a washed membrane preparation
In words: 3H-cGAMP filtration binding assay (HAQ STING). To be noted: competition with tritiated cGAMP, HAQ STING membrane.
From the text: The ability of compounds to bind STING is quantified by the ability to compete with tritiated cGAMP ligand for human STING receptor membrane using a radioactive filter-binding assay. The binding assay employs STING receptor obtained from Hi-Five cell membranes overexpressing full-length HAQ STING prepared in-house and tritiated cGAMP ligand also purified in-house.
The ability of compounds to bind STING is quantified by their ability to compete with tritiated cGAMP ligand for human STING receptor membrane using a radioactive filter-binding assay. The binding assay employs STING receptor obtained from Trichoplusia ni cell membranes (T. ni; Expression Systems, cat #94-002F, www.expressionsystems.com) overexpressing full-length HAQ STING and tritiated cGAMP ligand.
The basic HAQ STING filtration assay protocol is as follows:
The compounds were serially titrated by the Hamilton STARPlus CORE in a 96-well plate (Greiner, #651201) using a 1:3 ten-point dose response format. After compound preparation, a 2.2 ug/ml working concentration of STING membrane (SEQ. ID. No. 1) was prepared by diluting concentrated membrane into assay buffer (1×PBS; Invitrogen # SH30028.02) and douncing 7× using a manual tissue homogenizer (Wheaton, #357546). 148 uL of prepared membrane was then manually added to each well of a 96-well deep-well polypropylene plate (Fisher Scientific, #12-566-121). Following membrane addition, 2 uL of either titrated test compound, DMSO control (Sigma #276855), or cold cGAMP control was added to the appropriate wells using a BIOMEK FX. Compound and membrane then preincubated for 60 min at RT to allow compound binding to equilibrate. Following equilibration, 8 nM of [^3H]c-GAMP ligand was prepared by diluting into assay buffer, and 50 uL of this working stock was then manually added to each well of the assay plate. Plates were then incubated at RT for 60 min, and the contents of each assay plate were then filtered through a 96-well GF/B filter plate (PerkinElmer, #6005250) using a TOMTEC MACH III Cell Harvester equipped with 20 mM HEPES buffer (Fisher Scientific, # BP299500). The filter plates were then dried at 55° C. for 30 min using a pressurized oven before 30 uL of ULTIMA GOLD F scintillate was added to each well. Tritium levels for each reaction well were then measured using a PerkinElmer TopCount plate reader.
as §1

Each structure is given as a SMILES string.

T2 sequence (Q86WV6 with tags, fused parts or gaps R71H/G230A/H232R/R293Q): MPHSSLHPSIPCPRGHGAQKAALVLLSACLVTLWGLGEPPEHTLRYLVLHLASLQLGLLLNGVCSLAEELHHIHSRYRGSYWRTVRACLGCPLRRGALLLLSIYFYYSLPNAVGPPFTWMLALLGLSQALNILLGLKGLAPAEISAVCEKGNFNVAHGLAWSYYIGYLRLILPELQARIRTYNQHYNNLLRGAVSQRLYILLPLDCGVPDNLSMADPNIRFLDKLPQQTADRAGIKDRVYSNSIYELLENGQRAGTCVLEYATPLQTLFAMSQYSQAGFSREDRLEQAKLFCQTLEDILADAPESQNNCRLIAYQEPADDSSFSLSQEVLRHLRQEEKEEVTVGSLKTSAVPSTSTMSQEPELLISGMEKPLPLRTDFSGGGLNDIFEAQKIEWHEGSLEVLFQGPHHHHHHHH
T1 sequence (Q86WV6 with tags, fused parts or gaps H232R): as the sequence (Q86WV6 with tags, fused parts or gaps R71H/G230A/H232R/R293Q) above, with H71R, A230G, Q293R counted along it

For `COc1cc2sc(C(=O)CCC(=O)O)cc2cc1OCCCc1ccc2sc(C(=O)CCC(=O)O)cc2c1` [Example 6, 4-(5-(3-((2-(3-carboxypropanoyl)-6-methoxybenzo [b]thiophen-5-yl)oxy)propyl)benzo[b]thiophen-2-yl)-4-oxobutanoic acid], the figures for the EC50 in assay [1] and in assay [3] were 206 nM and 53 nM, respectively. Also, the activation at 30 µM in assay [2] worked out at 106%.

Consider `COc1cc2sc(C(=O)CCC(=O)O)cc2cc1OCCc1nc2cc(C(=O)CCC(=O)O)sc2cc1OC` [Example 7, 4-(5-(2-((2-(3-carboxypropanoyl)-6-methoxybenzo [b]thiophen-5-yl)oxy)ethyl)-6-methoxythieno[3,2-b]pyridin-2-yl)-4-oxobutanoic acid], for which the EC50 in assay [1] is 71 nM; in assay [3], 17 nM. The activation at 30 µM in assay [2] is 97%.

Turning to `COc1cc2sc(C(=O)CCC(=O)O)cc2nc1CCOc1nc2cc(C(=O)CCC(=O)O)sc2cc1OC` [Example 8, 4-(5-(2-(2-(3-carboxypropanoyl)-6-methoxythieno[3,2-b]pyridin-5-yl)ethoxy)-6-methoxythieno[3,2-b]pyridin-2-yl)-4-oxobutanoic acid], the EC50 was determined as 76 nM in assay [1] and 12 nM in assay [3]. Also, the activation at 30 µM in assay [2] is 99%.

Consider `COc1cc2sc(C(=O)CCC(=O)O)nc2cc1OCCc1nc2cc(C(=O)CCC(=O)O)sc2cc1OC` [Example 9, 4-(5-(2-((2-(3-carboxypropanoyl)-6-methoxybenzo[d]thiazol-5-yl)oxy)ethyl)-6-methoxythieno[3,2-b]pyridin-2-yl)-4-oxobutanoic acid], for which the EC50 in assay [1] turned out to be 322 nM; in assay [3] it was 116 nM. The activation at 30 µM in assay [2] was 48%.

Take `COc1cc2sc(C(=O)CCC(=O)O)cc2cc1CCCOc1nc2cc(C(=O)CCC(=O)O)sc2cc1OC` [Example 10, 4-(5-(3-(2-(3-carboxypropanoyl)-6-methoxybenzo [b]thiophen-5-yl)propoxy)-6-methoxythieno[3,2-b]pyridin-2-yl)-4-oxobutanoic acid]: the figures for the EC50 in assay [1] and in assay [3] were 421 nM and 123 nM, respectively. Moreover, the activation at 30 µM in assay [2] came out at 134%.

For `COc1cc2sc(C(=O)CCC(=O)O)cc2cc1OCCOc1ccc2sc(C(=O)CCC(=O)O)cc2c1` [Example 11, 4-(5-(2-((2-(3-carboxypropanoyl)-6-methoxybenzo [b]thiophen-5-yl)oxy)ethoxy)benzo[b]thiophen-2-yl)-4-oxobutanoic acid], the EC50 in assay [1] is 4560 nM; in assay [3], 1760 nM. The activation at 30 µM in assay [2] worked out at 7%.

For the compound `COc1cc2sc(C(=O)CCC(=O)O)cc2cc1OCCCc1nc2cc(C(=O)CCC(=O)O)sc2cc1OC` [Example 13, 4-(5-(3-((2-(3-carboxypropanoyl)-6-methoxybenzo[b]thiophen-5-yl)oxy)propyl)-6-methoxythieno[3,2-b]pyridin-2-yl)-4-oxobutanoic acid], the EC50 is 625 nM in assay [1] and 158 nM in assay [3]. Further, the activation at 30 µM in assay [2] is 67%.

For `COc1cc2sc(C(=O)C[C@H](C)C(=O)O)cc2cc1CCCOc1nc2cc(C(=O)CCC(=O)O)sc2cc1OC` [Example 14, (S)-4-(5-(3-((2-(3-carboxypropanoyl)-6-methoxythieno[3,2-b]pyridin-5-yl)oxy)propyl)-6-methoxybenzo[b]thiophen-2-yl)-2-methyl-4-oxobutanoic acid], the EC50 came out at 21 nM in assay [1] and 3 nM in assay [3]. Also, the activation at 30 µM in assay [2] worked out at 77%.

Take `COc1cc2sc(C(=O)C[C@H](C)C(=O)O)cc2cc1OCCCc1nc2cc(C(=O)CCC(=O)O)sc2cc1OC` [Example 15, (S)-4-(5-(3-(2-(3-carboxypropanoyl)-6-methoxythieno [3,2-b]pyridin-5-yl)propoxy)-6-methoxybenzo[b]thiophen-2-yl)-2-methyl-4-oxobutanoic acid]: the EC50 in assay [1] amounted to 615 nM; in assay [3], 107 nM. Also, the activation at 30 µM in assay [2] is 114%.

A word on the EC50: it is the midpoint of the concentration-response curve. High values mean a need for much substance, low ones an effect from little substance.
